Measured values taken from publication PMC6982817, “Substituted N-(Pyrazin-2-yl)benzenesulfonamides; Synthesis, Anti-Infective Evaluation, Cytotoxicity, and In Silico Studies” (Molecules, 2019).
Values after ≈ are worked out from the molar mass of the structure shown. Where two headings read alike, the source gives them in different places.

Tests used:
[1] = tested on: Mycobacterium smegmatis DSM 43465 (ATCC 607); assay: Antimycobacterial microdilution assay, M. smegmatis; type: cell-based; conditions: for MIC: Mycolicibacterium smegmatis
[2] = tested on: M. avium ssp. avium CNCTC My 80/72 (ATCC 15769); assay: Antimycobacterial microplate alamar blue assay, M. avium; type: cell-based, Mycobacterium avium; conditions: for MIC: Mycobacterium avium
[3] = tested on: Mycobacterium tuberculosis H37Rv CNCTC My 331/88 (ATCC 27294); assay: Antimycobacterial microplate alamar blue assay, M. tuberculosis H37Rv; type: cell-based; conditions: for MIC: Mycobacterium tuberculosis; for Antimycobacterial Activity MIC Mtb H37Rv: Middlebrook 7H9 broth pH 6.6, alamar blue
[4] = tested on: M. kansasii CNCTC My 235/80 (ATCC 12478); assay: Antimycobacterial microplate alamar blue assay, M. kansasii; type: cell-based, Mycobacterium kansasii; conditions: for MIC: Mycobacterium kansasii; for Antimycobacterial Activity MIC M. kansasii: Middlebrook 7H9 broth pH 6.6, alamar blue
in vitro = conditions: human
[5] = tested on: Mycobacterium aurum DSM 43999 (ATCC 23366); assay: Antimycobacterial microdilution assay, M. aurum; type: cell-based; conditions: Middlebrook 7H9 broth, resazurin after 72 hours; for MIC: Mycolicibacterium aurum, 72 h
[6] = 48 h, Middlebrook 7H9 broth, resazurin after 48 hours, read-out: Antimycobacterial Activity MIC M. smeg
[7] = ATCC15769, pH 6.6, Middlebrook 7H9 broth pH 6.6, alamar blue, read-out: Antimycobacterial Activity MIC M. avium
[8] = Table 4 comparison, title compounds, read-out: Antimycobacterial Activity MIC against Mtb H37Rv, Sulfonamide
[9] = pH 6.6, Middlebrook 7H9 broth pH 6.6, alamar blue, read-out: Antimycobacterial Activity MIC Mtb H37Rv
[10] = ATCC12478, pH 6.6, Middlebrook 7H9 broth pH 6.6, alamar blue, read-out: Antimycobacterial Activity MIC M. kansasii
[11] = ATCC12478, molar value printed beside μg/mL in text, read-out: MIC M. kansasii
[12] = Middlebrook 7H9 broth, resazurin after 48 hours

COc1ccc(S(=O)(=O)Nc2cnccn2)cc1 [Compound 6a, 4-methoxy-N-(pyrazin-2-yl)benzenesulfonamide]
MIC [1, 6]: ≥ 500 µg/mL
MIC [2, 7]: > 100 µg/mL
MIC [3, 8]: > 100 µg/mL
MIC [3, 9]: > 100 µg/mL
MIC [4, 10]: > 100 µg/mL
IC50 at 24 h (in vitro): > 1000 µM
MIC [5]: ≥ 500 µg/mL

O=S(=O)(Nc1cncc(Cl)n1)c1ccc2c(c1)OCCO2 [Compound 11b, N-(6-chloropyrazin-2-yl)-2,3-dihydrobenzo[b][1,4]dioxine-6-sulfonamide]
MIC [1, 6]: ≥ 500 µg/mL
MIC [2, 7]: > 100 µg/mL
MIC [3, 9]: > 100 µg/mL
MIC [4, 11]: 76.3 µM
MIC [4, 10]: 25 µg/mL
IC50 at 24 h (in vitro): 778 µM
MIC [5]: ≥ 500 µg/mL
melting point: 244.6 to 247 °C

Nc1ccc(S(=O)(=O)Nc2cncc(Cl)n2)cc1 [Compound 4b, 4-amino-N-(6-chloropyrazin-2-yl)benzenesulfonamide]
MIC [1, 6]: ≥ 500 µg/mL
MIC ([2]; ATCC15769, molar value printed beside μg/mL in text, read-out: MIC M. avium): 88 µM
MIC [2, 7]: 25 µg/mL
MIC [3, 9]: 6.25 µg/mL
MIC ([3]; read-out: MIC Mtb H37Rv): 22 µM
MIC [4, 11]: 44 µM
MIC [4, 10]: 12.5 µg/mL
IC50 at 24 h (in vitro): > 500 µM
MIC [5]: 250 µg/mL (≈ 878 µM)
melting point: 234.7 to 236.1 °C

CC(=O)Nc1ccc(S(=O)(=O)Nc2cnccn2)cc1 [Compound 2a, N-(4-(N-(pyrazin-2-yl)sulfamoyl)phenyl)acetamide]
MIC [1, 6]: ≥ 500 µg/mL
MIC [2, 7]: > 100 µg/mL
MIC [3, 9]: > 100 µg/mL
MIC [4, 11]: 85.5 µM
MIC [4, 10]: 25 µg/mL
IC50 at 24 h (in vitro): > 500 µM
MIC [5]: ≥ 500 µg/mL
melting point: 243.8 to 245.6 °C

Cc1cc(C)c(S(=O)(=O)Nc2cnccn2)c(C)c1 [Compound 9a, 2,4,6-trimethyl-N-(pyrazin-2-yl)benzenesulfonamide]
MIC [1, 6]: 125 µg/mL
MIC [2, 7]: > 100 µg/mL
MIC [3, 9]: > 100 µg/mL
MIC [4, 10]: > 100 µg/mL
IC50 at 24 h (in vitro): > 250 µM
MIC [5]: ≥ 500 µg/mL

O=S(=O)(Nc1cnccn1)c1ccccc1 [Compound 1a, N-(pyrazin-2-yl)benzenesulfonamide]
MIC [1, 6]: ≥ 250 µg/mL
MIC [2, 7]: > 100 µg/mL
MIC [3, 8]: > 100 µg/mL
MIC [3, 9]: > 100 µg/mL
MIC [4, 10]: 100 µg/mL
IC50 at 24 h (in vitro): > 1000 µM
MIC [5]: ≥ 500 µg/mL
melting point: 203 to 205 °C

O=S(=O)(Nc1cnccn1)c1ccc(-c2ccccc2)cc1 [Compound 12a, N-(pyrazin-2-yl)-[1,1′-biphenyl]-4-sulfonamide]
MIC [1, 6]: ≥ 500 µg/mL
MIC [2, 7]: > 100 µg/mL
MIC [3, 9]: 100 µg/mL
MIC [4, 11]: 321 µM
MIC [4, 10]: 100 µg/mL
IC50 at 24 h (in vitro): > 250 µM
MIC [5]: ≥ 500 µg/mL

NS(=O)(=O)c1ccccc1 [Benzenesulfonamide, benzenesulfonamide]
Antimycobacterial Activity MIC Mtb H37Rv [3]: completely inactive
MIC ([3]; pH 6.6, read-out: Antimycobacterial Activity MIC Mtb H37Rv): > 100 µg/mL

Nc1ccc(S(=O)(=O)Nc2cnccn2)cc1 [Compound 4a, 4-amino-N-(pyrazin-2-yl)benzenesulfonamide]
MIC [1, 6]: ≥ 500 µg/mL
MIC [2, 7]: 100 µg/mL
MIC [3, 9]: 6.25 µg/mL
MIC ([3]; read-out: MIC Mtb H37Rv): 25 µM
MIC [4, 11]: 6.2 µM
IC50 at 24 h (in vitro): 776 µM
MIC [5]: 250 µg/mL (≈ 999 µM)

O=S(=O)(Nc1cnccn1)c1ccc2ccccc2c1 [Compound 13a, N-(pyrazin-2-yl)naphthalene-2-sulfonamide]
MIC [1, 6]: 62.5 µg/mL
MIC ([1]; read-out: MIC M. smegmatis): 219 µM
MIC [2, 7]: > 100 µg/mL
MIC [3, 9]: > 100 µg/mL
MIC [4, 10]: 50 µg/mL
IC50 at 24 h (in vitro): > 500 µM
MIC [5]: ≥ 500 µg/mL
melting point: 223.5 to 224.7 °C

O=S(=O)(Nc1cnccn1)c1ccc2ncccc2c1 [Compound 14a, N-(pyrazin-2-yl)quinoline-6-sulfonamide]
MIC [1, 6]: ≥ 500 µg/mL
MIC [2, 7]: > 100 µg/mL
MIC [3, 9]: > 100 µg/mL
MIC [4, 10]: 100 µg/mL
IC50 at 24 h (in vitro): > 250 µM
MIC [5]: ≥ 500 µg/mL
melting point: 249.4 to 252 °C

O=[N+]([O-])c1ccc(S(=O)(=O)Nc2cncc(Cl)n2)cc1 [Compound 3b, N-(6-chloropyrazin-2-yl)-4-nitrobenzenesulfonamide]
MIC [1, 6]: 250 µg/mL
MIC [2, 7]: > 100 µg/mL
MIC [3, 9]: > 100 µg/mL
MIC [4, 10]: > 100 µg/mL
IC50 at 24 h (in vitro): > 1000 µM
MIC [5]: 125 µg/mL (≈ 397 µM)

Cc1cc(C)c(C)c(S(=O)(=O)Nc2cnccn2)c1C [Compound 10a, 2,3,5,6-tetramethyl-N-(pyrazin-2-yl)benzenesulfonamide]
MIC [1, 6]: ≥ 500 µg/mL
MIC [2, 7]: > 100 µg/mL
MIC [3, 9]: > 100 µg/mL
MIC [4, 10]: 50 µg/mL
IC50 at 24 h (in vitro): > 250 µM
MIC [5]: ≥ 500 µg/mL
melting point: 221 to 223.7 °C

Nc1ccc(S(=O)(=O)Nc2cncc(Cl)n2)cc1 [Sulfaclozine, reference compound]
Antimycobacterial Activity MIC M. smeg [1, 12]: 250 µg/mL
Antimycobacterial Activity MIC M. avium ([2]; Middlebrook 7H9 broth pH 6.6, alamar blue): 25 µg/mL
Antimycobacterial Activity MIC Mtb H37Rv [3]: 6.25 µg/mL
Antimycobacterial Activity MIC M. kansasii [4]: 12.5 µg/mL
Antimycobacterial Activity MIC M. aurum [5]: 250 µg/mL

CO[C@H]1/C=C/O[C@@]2(C)Oc3c(C)c(O)c4c(O)c(c(/C=N/N5CCN(C)CC5)c(O)c4c3C2=O)NC(=O)/C(C)=C\C=C\[C@H](C)[C@H](O)[C@@H](C)[C@@H](O)[C@@H](C)[C@H](OC(C)=O)[C@@H]1C [RFM, reference compound]
Antimycobacterial Activity MIC M. smeg [1, 12]: 25 µg/mL
MIC [1, 6]: 12.5 to 25 µg/mL
Antimycobacterial Activity MIC M. aurum [5]: 1.56 µg/mL
MIC [5]: 0.78 to 1.56 µg/mL (≈ 0.948 to 1.9 µM)

O=S(=O)(Nc1cnccn1)c1ccc2c(c1)OCCO2 [Compound 11a, N-(pyrazin-2-yl)-2,3-dihydrobenzo[b][1,4]dioxine-6-sulfonamide]
MIC [1, 6]: ≥ 500 µg/mL
MIC [2, 7]: > 100 µg/mL
MIC [3, 9]: > 100 µg/mL
Antimycobacterial Activity MIC M. kansasii [4]: >100 µg/mL
MIC [4, 11]: > 305 µM
MIC [4, 10]: > 100 µg/mL
IC50 at 24 h (in vitro): > 1000 µM
MIC [5]: 250 µg/mL (≈ 852 µM)
melting point: 264 to 267.1 °C

Nc1ccc(S(=O)(=O)Nc2cnc3ccccc3n2)cc1 [Sulfaquinoxaline, reference compound]
MIC [1, 6]: 125 µg/mL
MIC [2, 7]: 50 µg/mL
MIC [3, 9]: 3.13 µg/mL
MIC [4, 10]: 12.5 µg/mL
MIC [5]: 250 µg/mL (≈ 832 µM)

O=S(=O)(Nc1cncc(Cl)n1)c1ccc(Br)cc1 [Compound 7b, 4-bromo-N-(6-chloropyrazin-2-yl)benzenesulfonamide]
MIC [1, 6]: 125 µg/mL
MIC [2, 7]: > 100 µg/mL
MIC [3, 9]: 100 µg/mL
MIC [4, 10]: 50 µg/mL
IC50 at 24 h (in vitro): 308 µM
MIC [5]: 125 µg/mL (≈ 359 µM)
melting point: 176.5 to 179.3 °C

O=S(=O)(Nc1cnccn1)c1ccc(C(F)(F)F)cc1 [Compound 5a, N-(pyrazin-2-yl)-4-(trifluoromethyl)benzenesulfonamide]
MIC [1, 6]: 250 µg/mL
MIC [2, 7]: > 100 µg/mL
MIC [3, 9]: > 100 µg/mL
MIC [4, 10]: 50 µg/mL
IC50 at 24 h (in vitro): > 1000 µM
MIC [5]: 250 µg/mL (≈ 824 µM)
melting point: 154.3 to 155.5 °C

Cc1cc(C)cc(S(=O)(=O)Nc2cncc(Cl)n2)c1 [Compound 8b, N-(6-chloropyrazin-2-yl)-3,5-dimethylbenzenesulfonamide]
MIC [1, 6]: ≥ 500 µg/mL
MIC [2, 7]: 50 µg/mL
MIC [3, 9]: 50 µg/mL
MIC [4, 10]: > 100 µg/mL
IC50 at 24 h (in vitro): 523 µM
MIC [5]: ≥ 500 µg/mL

CC(=O)Nc1ccc(S(=O)(=O)Nc2cncc(Cl)n2)cc1 [Compound 2b, N-(4-(N-(6-chloropyrazin-2-yl)sulfamoyl)phenyl)acetamide]
MIC [1, 6]: 250 µg/mL
MIC [2, 7]: > 100 µg/mL
MIC [3, 9]: > 100 µg/mL
MIC [4, 11]: 76.5 µM
MIC [4, 10]: 25 µg/mL
IC50 at 24 h (in vitro): > 500 µM
MIC [5]: ≥ 500 µg/mL
